From US8614342B2, “Process for preparing epoxycarboxylic esters” (BASF SE, priority 2012, dated 2013)

Conditions: 20° C.

SMILES: COC(=O)C1CO1 (stereo not shown) [MEP, Methyl Epoxy Propionate]
- solubility of MEP in water: 43 g/10 g of H2O
